Test results taken from patent publication US4124766A, “Substituted 3-(4-imidazolylmethylene)carbazic and thiocarbazic acid esters” (American Cyanamid Company, priority 1977, dated 1978).

Legend:
[1] = tested on: mouse skin PDE (cyclic-AMP phosphodiesterase); test: Mouse skin phosphodiesterase (PDE) inhibition test (A); format: biochemical, mouse (hairless mice); set-up: key to Mouse Skin Phosphodiesterase (A): Active: A compound is considered active if it inhibits more than theophylline, that is, to 50% of control at 1 mM concentration of compound, or to 80% of control for 0.05 mM concentration of compound; conditions: for Mouse Skin Phosphodiesterase (A): final concentration of test compound 10 ug./ml, active = inhibits more than theophylline
[2] = tested on: monkey lung cyclic AMP phosphodiesterase; test: Monkey lung phosphodiesterase inhibition test (B); format: biochemical, African green monkey; set-up: key to Monkey Lung Phosphodiesterase (B): Active: A compound is considered active if it inhibits more than theophylline, that is, to 50% of control at 1 mM concentration of compound, or to 80% of control for 0.05 mM concentration of compound; conditions: for Monkey Lung Phosphodiesterase (B): test compound usually 1 mM or 0.1 mM, active = inhibits more than theophylline
Description: Lung parenchyma of African green monkeys is homogenized in a Waring blender and centrifuged at 40,000 × gravity for 20 minutes. The supernatant is brought to 70% saturation of ammonium sulfate, centrifuged and the pellet redissolved and dialysed, before aliquoting and storage at -20° C.
Phosphodiesterase is assayed by the method of Thompson and Appleman, ibid. An assay tube contains a 0.4 ml. solution of the following: 45 mM tris-HCl buffer, pH 7.4, 6.25 mM MgCl2, 0.1 mM dithioerythritol, 10^-6 M cyclic AMP, 0.1 uCi [^3 H]-cyclic AMP, and test compound at the desired concentration (usually 1 mM or 0.1 mM). Compounds not readily soluble in water are dissolved at 40 times the desired concentration in methanol, and diluted 20 times with water. If the compound is not dissolved at this time, it is suspended by sonication before being diluted 1:2 into the assay tube. In this case the activity of the enzyme in the presence of the compound is compared to a solvent control (2.5% methanol), although the solvent alone has negligible effect. The reaction is initiated by addition of enzyme and proceedes at 25° C. for 20 minutes. It is terminated by incubation at 100° C. for 2 minutes. The tubes are cooled to 25° C., 0.8 ug of 5'-nucleotidase (Crotolus adamantus toxin) is added to each and the tubes incubated at 25° C. for 30 minutes. A one milliliter suspension of Bio-Rad Labs. AGIX8® (about 0.5 ml. of settled resin) is added, the tubes centrifuged at 900 × gravity for 10 minutes and an aliquot of supernatant removed for scintillation counting. The inhibition by the test compound is calculated as: [formula] where `compound` is the cpm in the presence of compound, `control` is the cpm in the absence of compound, and `blank` is the cpm in the absence of enzyme. […] For this reason, control tubes which contained [^3 H]-AMP instead of [^3 H]-cyclic AMP are run in parallel. A correction of the apparent phosphodiesterase activity is made for the rare compound which inhibited the hydrolysis of AMP.
A compound is considered active if it inhibits more than theophylline, that is, to 50% of control at 1 mM concentration of compound, or to 80% of control for 0.05 mM concentration of compound.

Structure (SMILES) | Mouse Skin Phosphodiesterase (A) [1] | Monkey Lung Phosphodiesterase (B) [2] | phosphodiesterase activity, % of control (theophylline benchmark) ([1]; 0.05 mM concentration of compound, criterion stated for skin (A) or lung (B)) [%] | phosphodiesterase activity, % of control (theophylline benchmark) ([2]; 1 mM concentration of compound, criterion stated for skin (A) or lung (B)) [%]
O=c1[nH]ncc2cnc(Cc3ccccc3)n12 [6-Benzyl-imidazo[1,5-d]-as-triazin-4(3H)-one] | Active | – | – | –
Cc1nc(Cc2ccccc2)n2c(=O)[nH]ncc12 [6-Benzyl-8-methyl-imidazo[1,5-d]-as-triazin-4(3H)-one] | Active | – | – | –
Cc1ncn2c(=O)[nH]ncc12 [8-Methyl-imidazo[1,5-d]-as-triazin-4(3H)-one] | Active | – | – | –
Cc1ncn2c(=S)[nH]ncc12 [8-Methyl-imidazo[1,5-d]-as-triazine-4(3H)-thione] | Active | – | – | –
CC(C)(C)c1ncc2cn[nH]c(=O)n12 [6-tert-Butyl-imidazo[1,5-d]-as-triazin-4(3H)-one] | Active | – | – | –
CCCc1ncc2cn[nH]c(=O)n12 [6-n-Propyl-imidazo[1,5-d]-as-triazin-4(3H)-one] | Active | – | – | –
O=c1[nH]ncc2cnc(-c3ccccc3)n12 [6-Phenyl-imidazo[1,5-d]-as-triazin-4(3H)-one] | Active | – | – | –
CCCOc1ccccc1-c1ncc2cn[nH]c(=O)n12 [6-o-Propoxyphenyl-imidazo[1,5-d]-as-triazin-4(3H)-one] | Active | – | – | –
Cc1nc(C(C)(C)C)n2c(=O)[nH]ncc12 [6-tert-Butyl-8-methyl-imidazo[1,5-d]-as-triazin-4(3H)-one] | Active | Active | – | –
Cc1nc(-c2ccccc2)n2c(=O)[nH]ncc12 [8-Methyl-6-phenyl-imidazo[1,5-d]-as-triazin-4(3H)-one] | Active | Active | – | –
O=c1[nH]ncc2c(Br)nc(-c3ccccc3)n12 [8-Bromo-6-phenyl-imidazo[1,5-d]-as-triazin-4(3H)-one] | Active | Active | – | –
O=c1[nH]ncc2c(Cl)nc(-c3ccccc3)n12 [8-Chloro-6-phenyl-imidazo[1,5-d]-as-triazin-4(3H)-one] | Active | Active | – | –
Cn1c(=O)c2[nH]cnc2n(C)c1=O [theophylline, reference compound] | – | – | 80 | 50

The next lines start with results.

Mouse Skin Phosphodiesterase (A) [1] | Monkey Lung Phosphodiesterase (B) [2] | Structure (SMILES) | phosphodiesterase activity, % of control (theophylline benchmark) ([1]; 0.05 mM concentration of compound, criterion stated for skin (A) or lung (B)) [%] | phosphodiesterase activity, % of control (theophylline benchmark) ([2]; 1 mM concentration of compound, criterion stated for skin (A) or lung (B)) [%]
Active | Active | Cc1nc(C)n2c(=O)[nH]ncc12 [6,8-Dimethyl-imidazo[1,5-d]-as-triazin-4(3H)-one] | – | –
Active | – | Cc1nc(-c2ccccc2)n2c(=S)[nH]ncc12 [8-Methyl-6-phenyl-imidazo[1,5-d]-as-triazine-4(3H)-thione] | – | –
Active | – | Cc1nc(C)n2c(=S)[nH]ncc12 [6,8-Dimethyl-imidazo[1,5-d]-as-triazine-4(3H)-thione] | – | –
Active | Active | CCCc1nc(C)c2cn[nH]c(=S)n12 [8-Methyl-6-n-propyl-imidazo[1,5-d]-as-triazine-4(3H)-thione] | – | –
Active | Active | CCCc1ncc2cn[nH]c(=S)n12 [6-n-Propyl-imidazo[1,5-d]-as-triazine-4(3H)-thione] | – | –
Active | Active | Cc1nc(Cc2ccccc2)n2c(=S)[nH]ncc12 [6-Benzyl-8-methyl-imidazo[1,5-d]-as-triazine-4(3H)-thione] | – | –
